Results from patent EP2308883A1, “New derivatives of thieno[2,3-b]pyridine and 5,6,7,8 tetrahydrothieno[2,3 b]quinoline in particular useful in the treatment of malaria” (priority 2009, dated 2011).
Like-named read-outs stand apart in the source and are kept apart here.

Key:
GSK-3 [1] = biological target: T1, GSK-3 (Plasmodium knowlesi, UniProt A0A679KU36); assay: Species specificity: recombinant tagged GSK-3 orthologue kinase assay; format: biochemical
T1 sequence (A0A679KU36 1-473): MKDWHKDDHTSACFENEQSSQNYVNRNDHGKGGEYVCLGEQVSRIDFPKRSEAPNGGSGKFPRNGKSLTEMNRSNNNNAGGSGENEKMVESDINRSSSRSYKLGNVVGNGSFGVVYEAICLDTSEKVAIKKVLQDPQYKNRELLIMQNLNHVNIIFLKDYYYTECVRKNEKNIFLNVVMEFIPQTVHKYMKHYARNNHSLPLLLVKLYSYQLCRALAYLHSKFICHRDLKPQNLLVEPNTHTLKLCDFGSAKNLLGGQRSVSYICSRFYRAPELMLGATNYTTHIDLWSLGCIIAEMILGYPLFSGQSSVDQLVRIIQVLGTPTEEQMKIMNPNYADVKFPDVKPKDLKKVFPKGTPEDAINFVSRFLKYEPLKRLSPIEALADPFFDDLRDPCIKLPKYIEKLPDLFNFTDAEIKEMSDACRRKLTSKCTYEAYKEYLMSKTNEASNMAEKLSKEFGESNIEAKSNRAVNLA
Procedure: (§2) Following PCR amplification from cDNA libraries or direct synthesis based on databases sequences, the GSK-3 genes were inserted in appropriate expression vectors and recombinant, tagged kinases were expressed, affinity purified and assayed in the presence of up to 10-100µM of each compound of formula (I) according to the present invention and a selection of the PfGSK-3 inhibitors.

GSK-3 [2] = biological target: T2, GSK-3 (Toxoplasma gondii, UniProt O44002); assay: as above; format: biochemical, Toxaplasma grondii
T2 sequence (O44002 1-394): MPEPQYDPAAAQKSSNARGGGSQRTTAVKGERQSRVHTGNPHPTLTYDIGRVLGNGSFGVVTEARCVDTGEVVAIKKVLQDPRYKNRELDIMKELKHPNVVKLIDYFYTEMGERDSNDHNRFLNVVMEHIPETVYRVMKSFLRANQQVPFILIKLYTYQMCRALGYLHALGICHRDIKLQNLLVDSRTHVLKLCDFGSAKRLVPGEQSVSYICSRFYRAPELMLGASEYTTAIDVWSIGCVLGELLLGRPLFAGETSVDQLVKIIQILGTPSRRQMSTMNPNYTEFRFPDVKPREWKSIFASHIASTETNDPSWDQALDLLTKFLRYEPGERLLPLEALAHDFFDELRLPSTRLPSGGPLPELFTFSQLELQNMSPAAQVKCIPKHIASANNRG
Procedure: as §2

GSK-3 [3] = biological target: T3, GSK-3 (Cryptosporidium parvum, UniProt A3FQN0); assay: as above; format: biochemical
T3 sequence (A3FQN0 1-433): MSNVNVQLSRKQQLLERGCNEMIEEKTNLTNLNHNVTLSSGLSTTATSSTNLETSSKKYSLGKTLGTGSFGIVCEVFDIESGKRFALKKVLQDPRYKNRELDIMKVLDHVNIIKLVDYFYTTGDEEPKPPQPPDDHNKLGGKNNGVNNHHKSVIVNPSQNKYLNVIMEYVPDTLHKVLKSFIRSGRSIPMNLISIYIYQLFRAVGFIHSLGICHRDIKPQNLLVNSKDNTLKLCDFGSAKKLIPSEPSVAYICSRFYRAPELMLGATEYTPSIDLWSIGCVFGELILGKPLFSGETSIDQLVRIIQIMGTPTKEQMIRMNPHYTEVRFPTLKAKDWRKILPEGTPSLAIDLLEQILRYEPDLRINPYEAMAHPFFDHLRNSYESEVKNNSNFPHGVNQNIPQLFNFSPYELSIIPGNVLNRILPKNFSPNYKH
Procedure: as §2

GSK-3 [4] = biological target: T4, GSK-3 (Trypanosoma cruzi, UniProt Q4E1X0); assay: as above; format: biochemical
T4 sequence (Q4E1X0 1-353): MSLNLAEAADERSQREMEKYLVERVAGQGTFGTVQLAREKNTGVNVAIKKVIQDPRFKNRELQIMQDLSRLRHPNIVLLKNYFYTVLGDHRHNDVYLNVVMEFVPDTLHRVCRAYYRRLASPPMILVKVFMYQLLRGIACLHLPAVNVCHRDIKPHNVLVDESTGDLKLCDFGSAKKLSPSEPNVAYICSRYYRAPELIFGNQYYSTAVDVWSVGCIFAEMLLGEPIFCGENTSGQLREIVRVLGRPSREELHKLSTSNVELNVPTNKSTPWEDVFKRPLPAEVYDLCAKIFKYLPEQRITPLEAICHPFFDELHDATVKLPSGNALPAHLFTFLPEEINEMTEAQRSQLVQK
Procedure: as §2

GSK-3 [5] = biological target: T5, GSK-3 (Leishmania donovani, UniProt A6N857); assay: as above; format: biochemical
T5 sequence (A6N857 1-355): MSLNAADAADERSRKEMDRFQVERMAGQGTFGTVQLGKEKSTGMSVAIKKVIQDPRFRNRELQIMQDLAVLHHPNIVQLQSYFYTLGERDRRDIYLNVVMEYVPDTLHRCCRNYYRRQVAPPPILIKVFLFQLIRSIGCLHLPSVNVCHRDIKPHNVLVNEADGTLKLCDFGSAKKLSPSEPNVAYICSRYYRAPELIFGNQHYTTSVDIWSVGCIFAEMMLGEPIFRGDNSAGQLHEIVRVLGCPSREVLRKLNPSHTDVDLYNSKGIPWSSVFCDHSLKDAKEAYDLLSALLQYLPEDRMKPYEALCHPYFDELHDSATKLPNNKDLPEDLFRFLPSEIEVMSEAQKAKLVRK
Procedure: as §2

[6] = test system: panel of 22 purified kinases, including 4 P. falciparum kinases; assay: Small panel of 22 purified kinases; format: biochemical; conditions: at concentrations up to 10 µM
Procedure: (§1) Compound No. 22 was also tested on a small panel of 22 purified kinases, including 4 P. falciparum kinases. […] To complement this selectivity study, compound No 22 was run on two large scale selectivity panels: Prof. P. Cohen's kinase selectivity panel (76 kinases) (Bain J, Plater L, Elliott M, Shapiro N, Hastie CJ, McLauchlan H et al. (2007). The selectivity of protein kinase inhibitors: a further update. Biochem J. 408: 297-315.) and the Ambit Biosciences interaction assay (402 kinases) (Karaman MW, Herrgard S, Treiber DK, Gallant P, Atteridge CE, Campbell BT, Chan KW, Ciceri P, Davis MI, Edeen PT, Faraoni R, Floyd M, Hunt JP, Lockhart DJ, Milanov ZV, Morrison MJ, Pallares G, Patel HK, Pritchard S, Wodicka LM, Zarrinkar PP. A quantitative analysis of kinase inhibitor selectivity. Nat Biotechnol. 2008 Jan;26(1):127-32.).

mammalian kinases = conditions: compared with roscovitine and staurosporine
Procedure: as §1

[7] = read-out: IC50 Plasmodium knowlesi; calculated from dose-response curves
[8] = read-out: IC50 Trypanopsoma cruzi; calculated from dose-response curves; -(100) taken as no inhibition at 100
[9] = read-out: IC50 Leishmania donovani; calculated from dose-response curves
[10] = calculated from dose-response curves; read-out: IC50 Plasmodium knowlesi
[11] = calculated from dose-response curves, -(100) taken as no inhibition at 100, read-out: IC50 Toxaplasma grondii
[12] = calculated from dose-response curves, -(100) taken as no inhibition at 100, read-out: IC50 Cryptosporidium parvum
[13] = calculated from dose-response curves; -(100) taken as no inhibition at 100; read-out: IC50 Trypanopsoma cruzi
[14] = calculated from dose-response curves; read-out: IC50 Leishmania donovani

Structure (SMILES)	IC50 (GSK-3 [1]; [7])	IC50 (GSK-3 [2])	IC50 (GSK-3 [3])	IC50 (GSK-3 [4]; [8])	IC50 (GSK-3 [5]; [9])	IC50 (GSK-3 [1]; [10])	IC50 (GSK-3 [2]; [11])	IC50 (GSK-3 [3]; [12])	IC50 (GSK-3 [4]; [13])	IC50 (GSK-3 [5]; [14])	inhibition of kinases of the panel besides PfGSK-3 [6]	inhibition of mammalian kinases in selectivity panels (mammalian kinases)
COc1ccccc1-c1c(C#N)c(N)nc2sc(C(=O)c3ccccc3)c(N)c12 [Compound 2, 3,6-diamino-2-benzoyl-4-(2-methoxyphenyl)thieno[2,3-b]pyridine-5-carbonitrile]	95 µM	> 100 µM	> 100 µM	> 100 µM	80 µM							
N#Cc1c(N)nc2sc(C(=O)c3cccc(Cl)c3)c(N)c2c1-c1ccccc1I [Compound 14, 3,6-diamino-2-(3-chlorobenzoyl)-4-(2-iodophenyl)thieno[2,3-b]pyridine-5-carbonitrile]						2.75 µM	> 100 µM	> 100 µM	> 100 µM	70 µM		
N#Cc1c(N)nc2sc(C(=O)c3cccc(Cl)c3)c(N)c2c1-c1ccccc1Br [Compound 20, 3,6-diamino-4-(2-bromophenyl)-2-(3-chlorobenzoyl)thieno[2,3-b]pyridine-5-carbonitrile]						1.45 µM	> 100 µM	> 100 µM	> 100 µM	44 µM		
N#Cc1c(N)nc2sc(C(=O)c3cccc(Cl)c3)c(N)c2c1-c1ccccc1Cl [Compound 22, 3,6-diamino-2-(3-chlorobenzoyl)-4-(2-chlorophenyl)thieno[2,3-b]pyridine-5-carbonitrile]	2.45 µM	> 100 µM	> 100 µM	> 100 µM	72 µM						no kinase was found to be inhibited	very poor, if at all, inhibitor of mammalian kinases
N#Cc1cccc(C(=O)c2sc3nc(N)c(C#N)c(-c4ccccc4Cl)c3c2N)c1 [Compound 26, 3,6-diamino-4-(2-chlorophenyl)-2-(3-cyanobenzoyl)thieno[2,3-b]pyridine-5-carbonitrile]						6.5 µM	> 100 µM	> 100 µM	> 100 µM	100 µM		
